“Also recorded” adds a separate entry of the source.
Key:
[1] = tested on: post-operative pain in mice; assay: Post-operative pain (plantar incision); type: in vivo; settings: 24 h after incision
Procedure: (§1) For behavioural assessment adult male C57BL/6J mice aged 6-8 weeks were used. Animals were housed in groups of 3 or 4 per cage, under 12 h light-dark cycles and had standard rodent chow and water ad libitum.
Mechanical allodynia was assessed using an electronic von Frey apparatus (MouseMet Electronic von Frey, TopCat Metrology Ltd, United Kingdom). Mice were habituated in individual mouse runs for at least 5 min prior to testing. A soft-tipped 0.3 mm diameter flat-ended polypropylene probe was applied to the plantar surface of each hind paw with pressured applied at a force rise rate of ˜1 g/s. The force that elicited paw withdrawal was calculated using the MouseMet Software. The paw withdrawal force (PWF) was determined from the average of three tests, separated by at least 2 min.
To induce post-operative (post-surgical) pain, the plantar skin of the hind paw of mice was incised under light isoflurane (3%) anaesthesia. Briefly, a 7 mm longitudinal incision was made through the skin and fascia 3 mm from the proximal edge of the heel using a sterile surgical scalpel (#11). The underlying plantaris muscle was elevated and also incised longitudinally. The wound was closed with two silk sutures. Mechanical allodynia was assessed 24 h after the incisional injury.

[2] = tested on: OD1-induced spontaneous pain behaviours in mice; assay: OD1 model of spontaneous pain behaviours; type: in vivo
Procedure: as §1
OD1 was diluted in phosphate-buffered saline/0.1% BSA (300 nM) and administered by shallow subcutaneous (intraplantar) injection to the left hind paw of mice in a volume of 40 μL under light isoflurane (3%) anesthesia. Mice were then placed individually into polyvinyl boxes (10×10×10 cm), and spontaneous pain behavior (licks and flinches) was counted by an investigator unaware of the treatments received from video recordings for 10 min post-injection.

[3] = biological target: T1, hNav1.3 (Homo sapiens, UniProt Q9NY46); assay: FLIPR membrane potential assay, hNav1.3; type: cell-based
T1 construct: host or cells: HEK293
T1 sequence (Q9NY46 whole entry): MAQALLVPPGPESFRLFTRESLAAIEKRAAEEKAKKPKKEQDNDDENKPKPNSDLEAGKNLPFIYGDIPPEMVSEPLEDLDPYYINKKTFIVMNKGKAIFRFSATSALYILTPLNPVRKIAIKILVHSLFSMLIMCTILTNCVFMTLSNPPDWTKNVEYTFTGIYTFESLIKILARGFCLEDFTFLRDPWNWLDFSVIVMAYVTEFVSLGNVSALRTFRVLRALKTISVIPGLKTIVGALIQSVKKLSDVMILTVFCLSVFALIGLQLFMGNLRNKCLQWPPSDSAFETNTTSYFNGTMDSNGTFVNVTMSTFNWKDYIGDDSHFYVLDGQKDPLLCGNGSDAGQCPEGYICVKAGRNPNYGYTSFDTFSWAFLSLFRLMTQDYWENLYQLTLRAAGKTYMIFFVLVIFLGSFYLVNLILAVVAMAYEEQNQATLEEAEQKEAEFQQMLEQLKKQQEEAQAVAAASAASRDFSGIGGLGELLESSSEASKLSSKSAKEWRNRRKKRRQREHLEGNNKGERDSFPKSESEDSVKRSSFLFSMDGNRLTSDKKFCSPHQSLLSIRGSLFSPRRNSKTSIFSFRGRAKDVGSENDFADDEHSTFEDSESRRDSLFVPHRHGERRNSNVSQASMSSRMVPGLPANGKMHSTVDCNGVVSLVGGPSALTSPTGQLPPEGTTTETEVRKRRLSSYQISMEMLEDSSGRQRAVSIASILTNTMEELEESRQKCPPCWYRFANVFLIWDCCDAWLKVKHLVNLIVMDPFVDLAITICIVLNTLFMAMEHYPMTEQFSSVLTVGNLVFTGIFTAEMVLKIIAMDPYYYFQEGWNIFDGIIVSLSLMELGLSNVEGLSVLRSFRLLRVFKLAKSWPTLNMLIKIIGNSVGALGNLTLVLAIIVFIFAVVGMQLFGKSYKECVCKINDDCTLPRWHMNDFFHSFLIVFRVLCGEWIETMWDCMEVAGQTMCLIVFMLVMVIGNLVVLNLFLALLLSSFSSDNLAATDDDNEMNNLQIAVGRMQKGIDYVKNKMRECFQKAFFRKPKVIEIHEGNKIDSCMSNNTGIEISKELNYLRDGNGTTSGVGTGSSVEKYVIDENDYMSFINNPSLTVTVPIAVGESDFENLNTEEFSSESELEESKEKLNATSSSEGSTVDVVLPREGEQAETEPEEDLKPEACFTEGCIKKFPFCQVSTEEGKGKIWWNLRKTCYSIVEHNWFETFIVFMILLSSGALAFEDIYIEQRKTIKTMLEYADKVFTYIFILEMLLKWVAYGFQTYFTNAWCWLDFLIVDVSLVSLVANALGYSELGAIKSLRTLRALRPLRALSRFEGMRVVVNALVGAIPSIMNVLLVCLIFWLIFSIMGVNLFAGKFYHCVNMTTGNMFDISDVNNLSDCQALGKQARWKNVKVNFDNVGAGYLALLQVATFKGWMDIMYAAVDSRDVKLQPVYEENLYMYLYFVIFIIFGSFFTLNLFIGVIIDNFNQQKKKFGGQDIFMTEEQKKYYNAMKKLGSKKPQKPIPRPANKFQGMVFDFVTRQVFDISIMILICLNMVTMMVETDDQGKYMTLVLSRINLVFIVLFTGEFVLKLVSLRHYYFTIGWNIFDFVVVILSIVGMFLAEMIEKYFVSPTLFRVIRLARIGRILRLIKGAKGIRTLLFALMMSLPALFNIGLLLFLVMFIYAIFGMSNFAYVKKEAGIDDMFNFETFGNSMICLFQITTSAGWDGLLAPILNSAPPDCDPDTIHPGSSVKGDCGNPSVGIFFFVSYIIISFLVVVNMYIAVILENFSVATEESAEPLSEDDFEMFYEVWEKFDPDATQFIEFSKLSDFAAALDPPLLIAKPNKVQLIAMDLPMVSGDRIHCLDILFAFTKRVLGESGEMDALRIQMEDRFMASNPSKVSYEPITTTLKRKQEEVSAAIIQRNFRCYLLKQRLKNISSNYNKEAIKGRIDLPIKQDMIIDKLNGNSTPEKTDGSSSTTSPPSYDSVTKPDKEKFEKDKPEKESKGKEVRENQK
Outline: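 Cells plated 48 h before assay, then dye-loaded (red membrane potential dye, 1× in PSS, 30 min, 37° C), then agonist added and membrane potential tracked on FLIPR^TETRA for 300 s. HEK293 stable lines expressing each hNav subtype.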

[4] = tested on: burns-induced pain in mice; assay: Burns-induced pain; type: in vivo; settings: intraplantar, 3 days after burns injury
Procedure: as §1
To induce a mild burn injury, the plantar skin of the left hind paw of mice was applied with firm pressure to a Peltier plate (Hot/Cold Plate, Ugo Basile, Comerio, Italy) set at 52.5° C. for 25 s under light isoflurane (3%) anaesthesia. Behavioural assessment (mechanical and thermal thresholds) was performed 3 days after the burns injury.
Mechanical allodynia was assessed using an electronic von Frey apparatus (MouseMet Electronic von Frey, TopCat Metrology Ltd, United Kingdom). […] The force that elicited paw withdrawal was calculated using the MouseMet Software. The paw withdrawal force (PWF) was determined from the average of three tests, separated by at least 2 min.
Mice were habituated in individual mouse runs for at least 5 min prior to testing. […] Removal of the paw and/or the probe by the investigator terminates heating, and triggers display of the withdrawal temperature on the readout, without the need for the investigator to manually stop the heating or record the temperature, until the reset button is pressed. The temperature that elicited a paw withdrawal, known as the paw withdrawal temperature (PWT), was determined by a single test.

SMILES: CSCC[C@@H]1NC(=O)[C@H](Cc2ccc(O)cc2)NC(=O)[C@H](CCCNC(=N)N)NC(=O)[C@@H](NC(=O)[C@@H](N)CC(=O)O)CSSC[C@@H]2NC(=O)[C@@H]3CSSC[C@@H](C(=O)N[C@@H](C)C(=O)N[C@@H](Cc4c[nH]c5ccccc45)C(=O)N[C@@H](CC(=O)O)C(=O)N[C@@H](Cc4ccccc4)C(=O)N[C@H](C(=O)N[C@@H](Cc4ccccc4)C(=O)N[C@H](C(=O)O)[C@@H](C)O)[C@@H](C)O)NC(=O)[C@H](Cc4ccc(O)cc4)NC(=O)[C@H](CCCCN)NC(=O)[C@H](CCSC)NC(=O)[C@H](CCCCN)NC(=O)[C@H](CCCNC(=N)N)NC(=O)[C@H](CCCCN)NC(=O)[C@H](CSSC[C@H](NC(=O)[C@H](CC(=O)O)NC(=O)CNC(=O)[C@H](Cc4ccccc4)NC1=O)C(=O)N[C@@H](CCC(=O)O)C(=O)N[C@@H](CCCCN)C(=O)N[C@@H](CC(=O)O)C(=O)N[C@@H](CCC(=O)O)C(=O)N[C@@H](CC(=O)O)C(=O)N3)NC(=O)CNC(=O)[C@H](CC(C)C)NC(=O)[C@H](Cc1cnc[nH]1)NC(=O)[C@H](CCCCN)NC2=O [Pnc1a]
- mechanical threshold of the injured paw compared to vehicle ([1]; intraperitoneal 3 mg/kg): significantly increased
- mechanical threshold of the injured paw compared to vehicle ([1]; intraplantar 3 μM): significantly increased
- spontaneous pain behaviours evoked by OD1 ([2]; intraperitoneal 0.3, 1, 3 mg/kg, 15 min prior to OD1): concentration-dependently reversed; also recorded: dose-dependently reduced
- spontaneous pain behaviours evoked by OD1 ([2]; intraplantar, co-injected with OD1, 100 nM, 300 nM, 1 μM): concentration-dependently reversed
- IC50 [3]: 8.13 µM
- mechanical threshold of the injured paw [4]: no significant effect
- thermal threshold of the injured paw [4]: significantly increased

Reference: patent US10662229B2, “Spider venom peptides and methods of use for modulating sodium channels” (priority 2016, dated 2020)
